# Measurements published in patent US20120035161A1, “Novel Compositions and Methods of Treating Diseases Using the Same” (CORRIDOR PHARMACEUTICALS, INC., priority 2006, published 2012).
# What was measured:
# [1] = tested on: Aspergillus fumigatus-based mouse asthma model; experiment: Aspergillus fumigatus-based mouse asthma model, lung resistance; type: in vivo; details: 20 mg/ml, intraperitoneally
# Protocol: Compounds of the invention were also tested for efficiacy in an asthma model.
# A cohort of mice was administered intraperitoneal injections of Aspergillus fumigatus on days 0, 14, 26, 27, and 28. Lung resistance was tested on day 29 immediately following a tracheotomy/methacholine procedure. Animals receiving dexamethasone were administered dexamethasone on days 26, 27 and 28. Animals receiving a compound of the invention were administered the compound just hours before the lung resistance test. As a control, all test compounds, as well as dexamethasone, were also administered to mice in the absence of an A. fumigatus insult.
# [2] = biological target: T1, Serotonin (5-Hydroxytryptamine) 5-HT1A (Homo sapiens, UniProt P08908); experiment: Radioligand binding, 5-HT1A ([3H] 8-OH-DPAT)
# T1 construct: expressed in transfected cells; host or cells: CHO cells
# T1 sequence (P08908 1-422): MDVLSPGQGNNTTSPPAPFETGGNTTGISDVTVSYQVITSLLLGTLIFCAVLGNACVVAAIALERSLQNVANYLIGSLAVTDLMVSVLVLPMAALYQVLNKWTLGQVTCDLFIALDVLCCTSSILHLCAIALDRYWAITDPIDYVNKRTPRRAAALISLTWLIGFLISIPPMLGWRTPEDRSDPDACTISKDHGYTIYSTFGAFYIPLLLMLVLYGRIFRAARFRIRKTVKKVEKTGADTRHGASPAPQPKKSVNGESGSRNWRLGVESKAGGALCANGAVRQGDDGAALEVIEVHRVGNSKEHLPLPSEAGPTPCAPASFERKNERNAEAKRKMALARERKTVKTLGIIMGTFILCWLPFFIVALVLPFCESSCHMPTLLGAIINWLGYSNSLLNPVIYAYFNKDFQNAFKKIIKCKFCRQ
# Protocol: The methods employed in this study have been adapted from the scientific literature to maximize reliability and reproducibility. Reference standards were run as an integral part of each assay to ensure the validity of the results obtained. Assays were performed under conditions as described below. Where presented, IC50 values were determined by a non-linear, least squares regression analysis using the Data Analysis Toolbox (MDL Information Systems, San Leandro, Calif., USA). Where inhibition constants (Ki) are presented, the Ki values were calculated using the equation of Cheng and Prusoff (Cheng, Y., Prusoff, W. H., Biochem. Pharmacol. 22:3099-3108, 1973) using the observed IC50 of the tested compound, the concentration of radioligand employed in the assay, and historical values for the KD of the ligand. Where presented, the Hill coefficient (nu), defining the slope of the competitive binding curve, was calculated using the Data Analysis Toolbox.
# TNF-α = experiment: Model of LPS-mediated cytokine production, serum TNF-α; type: in vivo, CD1:ICR mice; details: pre-dose time course, 10 mg/kg, IV or IP
# Protocol: (§1) Both ICI-685 and ICI-735 were formulated in water. For the time course study, both drugs were formulated at a concentration of 1 mg/ml and dosed 10 ml/kg to produce a dose of 10 mg/kg. For the dose-response study, drug was formulated at concentrations of 0.05, 0.2 and 0.5 mg/ml and dosed at a volume of 10 ml/kg to produce doses of 0.5, 2 and 5 mg/kg, respectively. Animals were dosed IV or IP.
# CD1:ICR mice were obtained from Harlan (Indianapolis, Ind.) at 6 weeks of age. Animals were housed 5 per cage, kept on a 12 hr light dark cycle and fed food and water ad libitum. Animals were tested at 8-10 weeks of age.
# (§2) Lipopolysaccharide (heat killed E. coli 0127:B5; Sigma Aldrich) was prepared in distilled water at a concentration of 0.025 mg/ml. LPS was dosed at a volume of 10 ml/kg (IP) to produce a final dose of 0.25 mg/kg (approximately 7.5 μg/mouse). Drugs were dosed prior to LPS administration as indicated elsewhere herein. Blood was collected by retro-orbital eye bleed 90 minutes after LPS administration, Serum was prepared from blood and TNF-α and IL-1β levels were measured by using the OPT-EIA mouse TNF-α and IL-1β ELISA kits (BD Biosciences) as per directions of the manufacturer.
# The first study was designed to determine the optimal route of administration and the optimal pre-treatment time. Two pre-dose time course studies were conducted. The first (Study 1A) was conducted with 3 pre-dose time points (2, 6 and 18 hrs). The second was conducted at 0, 1 and 2 hr predose time points. For both studies, drug was dosed IP or IV.
# Using data from the first study, a second study was conducted that was designed to measure dose-response activity of each compound. Compounds were tested at doses of […]., 2.0 and 5 mg/kg using the route and pre-treatment time that produced the best activity.
# as §1, with “Compounds ICI-715, ICI-824, ICI-953” for “Both ICI-685”, “ICI-954” for “ICI-735”, “study,” for “study, both”, “drugs were” for “drug was”
# as §2, with “mg/ml,” for “mg/ml.”, “[…]).” for “μg/mouse).”, “above.” for “elsewhere herein.”, “administration.” for “administration,”
# The first study was designed to determine the optimal route of administration and the optimal pre-treatment time. One pre-dose time course was conducted (for all compounds) with compounds administered at 0, 1 and 2 hrs prior to LPS treatment. For both studies, drug was dosed IP or IV. The IP study and IV study were conducted on separate days.
# Using data from the first study, a second study was conducted that was designed to measure dose-response activity of each compound. Compounds were tested at doses of 0.5, 2.0 and 5 mg/kg using the route and pre-treatment time that produced the best activity.
structure (smiles),measurement,setting,value
NCC(=O)NCCN1CCN(CCCN2c3ccccc3Sc3ccc(C(F)(F)F)cc32)CC1 [ICI-735],Lung resistance,"[1]; A. fumigatus insult, day 29",8.5 cm H2O/ml/s
same,decreasing lung resistance compared with dexamethasone,[1],at least as effective as dexamethasone
same,inhibition at 0.1 µM,[2]; 0.1 μM,14%
same,inhibition at 10 µM,[2]; 10 μM,89%
same,inhibition of LPS-stimulated TNFα secretion,TNF-α,inhibited
